Measurements reported in patent publication US20170315136A9, “BIOMARKER ASSAY OF NEUROLOGICAL CONDITION” (priority 2009, published 2017).

Columns and labels:
[1] = tested on: Female Sprague-Dawley rats; settings: for GFAP levels / SBDP150 levels / UCH-L1 levels: biofluid, 30, 60, 90, 120 minutes following dosing
Procedure: Acute oral In vivo drug candidate screening for neurotoxicity. […] A total of four to eight animals of are used for each dose level investigated.
At 30, 60, 90, and 120 minutes following dosing, the rats are sacrificed by decapitation and blood is obtained by cardiac puncture. The levels of biofluid UCH-L1 and SBDP 150 and GFAP are analyzed by sandwich ELISA or western blot by using UCH-L1 and SBDP 150 and GFAP specific antibodies.

[2] = tested on: Mouse, rat cortical or hippocampal primary neurons; experiment: In vitro drug candidate screening for neurotoxicity (ELISA of cell lysates); assay type: cell-based; settings: primary neurons 21 DIV; Glutamate 0.01 to 1000 μM for 30 minutes, H2O2 0.001 to 1000 μM for 24 hours; lysates by ELISA
Procedure: In vitro drug candidate screening for neurotoxicity. Mouse, rat cortical or hippocampal primary neurons are cultured for 21 DIV, and the dose dependent responses of drugs are investigated. Cultured cells are exposed to various concentrations of: Glutamate (0.01 to 1000 μM) in 10 μM glycine both in HBSS; B) 0.01 to 100 μM Kainate in culture media; C) H2O2 (0.001 to 1000 μM) in culture media; C) Zinc (0.01 to 1000 μM) in culture media; D) U0126 (0.001 to 100 μM) in culture media; and E) and equal volume of culture media as a control. Glutamate treatment is performed for 30 minutes after which the cells are washed and the HBSS is replaced with culture media and analyzed. The remaining candidates are treated for 24 hours and analyzed. The levels of intracellular UCH-L1 and SBDP 145 are analyzed following cell lysis and screening of the lysates by ELISA using anti-UCH-L1 and SBDP 145 specific antibodies. The levels of UCH-L1 are increased following exposure particularly to Glutamate and H2O2.

Row | Structure (SMILES) | GFAP levels [1] | SBDP150 levels [1] | UCH-L1 levels [1] | other results
1 | N.N.[Cl][Pt][Cl] [Cisplatin, cisplatin] | increase | increase | increase | –
2 | N[C@@H](CCC(=O)O)C(=O)O [Glutamate] | – | – | – | levels of intracellular UCH-L1 [2]: increased
3 | OO [H2O2] | – | – | – | levels of intracellular UCH-L1 [2]: increased
4 | CN1CC=C(c2ccccc2)CC1 [MPTP] | increase | increase | increase | –
5 | C[C@]12N[C@H](Cc3ccccc31)c1ccccc12 [dizocilpine] | increase | increase | increase | –
6 | C=C(C)[C@H]1CN[C@H](C(=O)O)[C@H]1CC(=O)O [kainic acid] | increase | increase | increase | –
7 | CN[C@@H](C)Cc1ccccc1 [methamphetamine] | – | – | – | CSF concentration of GFAP ([1]; rat, in vivo): increase; CSF concentration of SBDP 150 ([1]; rat, in vivo): increase; CSF concentration of UCH-L1 ([1]; rat, in vivo): increase
